From patent US4515781A, “2',5'-Riboadenylate-morpholinoadenylate nucleotides” (The United States of America as represented by the …, priority 1983, dated 1985)
Entries after “also recorded” stand apart in the source; their conditions may differ.

How the values were obtained:
[1] = molecular target: antip5'A2'p5'A2'p5'Aserum; assay: Reactivity of 2',5'-oligoadenylates with antibody (enzyme-linked immunoassay); type: binding; settings: for IC50: enzyme-linked immunoassay, read-out: IC50, concentration required to achieve a 50% inhibition of reactivity with antip5'A2'p5'A2'p5'Aserum
Description: ^a Concentration in nanomolar required to achieve a 50% inhibition of
reactivity with antip5'A2'p5'A2'p5'Aserum in an enzymelinked immunoassay.

2-5A synthetase = assay: Kinetics of 2-5A synthesis in the presence of compound 11 or 12; type: biochemical, mouse; settings: standard synthetase assay conditions
Procedure: Incubation was at 30° for the designated times at which aliquots (35 μL) were removed and diluted 10× in cold H2 O. These diluted reaction mixtures were frozen at -90° until analysis.
Reaction mixture were analyzed by thin layer chromatography by spotting 2 μL of the diluted reaction mixture on a plastic PEI cullulose plate (E. Merck). The plate was developed first with solvent system D and then three times with solvent system C. […] A template of the developed film was made with aid of tracing paper, and this was used to locate the corresponding radioactive spots on the tlc plate. The plate was cut according to the positions indicated by the template, and the resulting pieces were counted with 10 mls of fluor in a standard scintillation vial. The percentage of each radioactive component by the gross radioactivity associated with all the components visualized on tlc. The position of ATP, pp5'A2'p5'A,pppA2'p5'A2'p5'A, etc. were determined from authentic markers.

[2] = tested on: protein synthesis in mouse L cell extracts programmed by encephalomyocarditis virus RNA; assay: Inhibition of protein synthesis (translation) in extracts of mouse L cells programmed with encephalomyocarditis virus RNA; type: biochemical; settings: tetramer (12) alone
Procedure: (§1) The preparation of cell extracts and the techniques and conditions of cell-free protein synthesis in extracts of interferon-treated or untreated mouse L cells have been described elsewhere.
(§2) This observation provided a relatively simple approach to determine if a given nucleotide or oligoribonucleotide is capable of significant binding to the 2-5A-activated ribonuclease. For this reason, the (2'→5')oligoadenylates 5'-monophosphates, 11 and 12, were evaluated first for their ability to block the translational inhibitory effects of ppp5'A2'p5'A2'p5'A in extracts of mouse L cells programmed by encephalomyocarditis virus RNA. In the experiment, the 2-5A trimer, ppp5'A2'p5'A2'p5'A, was added in varying concentrations, with or without the tetranucleotide 5'-monophosphate inhibited translation with a concentration for half-maximal response of ~2×10^-9 M in agreement with other values in the literature. However, when 12 was also present at a concentration of 8×10^-5 M, there was at least a 1000-fold increase in the concentration of 2-5A trimer triphosphate required to bring about a half-maximal inhibition of protein synthesis.

[3] = tested on: 2-5A-activated ribonuclease (translational inhibitory effects of ppp5'A2'p5'A2'p5'A); assay: Antagonism of 2-5A trimer triphosphate translational inhibition in mouse L cell extracts; type: biochemical
Procedure: as §1
as §2, with “synthesis. […]” for “synthesis.”

[4] = tested on: 2-5A-dependent endoribonuclease; assay: Prevention of 2-5A-activated degradation of [3H]-encephalomyocarditis virus RNA in extracts of mouse L cells; type: biochemical
Description: (§3) To ascertain if the 2'-terminally modified (2'→5')oligonucleotides prevented the protein synthesis inhibitory action of 2-5A by the same mechanism as does p5'A2'p5'A2'p5'A (i.e., by preventing the activation of the 2-5A-dependent endoribonuclease), the 2-5A-enhanced degradation of [^3 H]-encephalomyocarditis virus RNA was followed in extracts of mouse L cells in the presence or absence of the modified tetramer monophosphate (12). The 2-5A-activated degradation of encephalomyocarditis virus RNA was prevented by 12; furthermore, there was good agreement between the results since in both instances a concentration of 8×10^-5 M 12 caused approximately a 1000-fold increase in the concentration of ppp5'A2'p5'A2'p5'A needed to effect 50% of the maximum inhibition.

[5] = tested on: poly(I)·poly(C) action (2-5A synthetase-endonuclease system); assay: Antagonism of poly(I).poly(C) protein synthesis inhibition in extracts of interferon-treated mouse L cells; type: biochemical
Description: as §1
This observation implied that the inhibitory action of poly(I)·poly(C) is mediated chiefly by the 2-5A synthetase-endonuclease system. […] As observed previously with p5'A2'p5'A2'p5'A, the reversal of inhibition of poly(I)·poly(C) was not complete.

[6] = Stability of 2',5'-oligoadenylates in mouse L-cell extracts, immunochemical study; type: in vitro ADME
Procedure: Oligoadenylates at a final concentration of 400 nM were incubated under protein synthesis conditions (minus [^3 H]-leu and EMCV RNA) at 30° C. for 0-6 hours. Samples were removed diluted with an equal volume of phosphate-buffered saline (PBS, 0.01M sodium phosphate, pH 7.4, 0.14M NaCl) with added 0.05% polyoxyethylene sorbitan monolaurate, (PSM) and then heated at 95° C. for 10-15 minutes. After cooling, the samples were centrifuged for 1 min. at room temperature in an Eppendorf microfuge. The supernatant samples were serially diluted (three-fold) in 0.05% PSM prior to analysis in a competitive enzyme-linked antibody assay.
In a second series of experiments, the degradation of both the 5'-monophosphates and 5'-triphosphate of the terminally modified oligomers was compared to the degradation of the corresponding unmodified mono- and tri-phosphates. In this case, however, the course of reaction was followed using an immunoenzymometric assay for 2-5A and its derivatives. The antiserum employed in this study was inhibited 50% by both the unmodified and 2'-terminally modified 2',5'-oligoadenylates in the nanomolar range, the tetramer oligoadenylates being 2-5 times more reactive than the corresponding trimer species (Table 3, experimental). In contrast, the dimers were much less reactive, requiring concentrations of about 300 nM to achieve this same level of inhibition. […]

[7] = tested on: 2-5A-dependent endoribonuclease (RNase L); assay: 2-5A-enhanced degradation of [3H]-encephalomyocarditis virus RNA in cell extracts (activation of RNase L); type: biochemical, mouse
Description: as §3
The enhanced activity of the 2'-terminally modified tetramer triphosphate 13 also was observed when the degradation of [^3 H]-encephalomycarditis virus RNA in cell extracts was examined. Modified tetramer triphosphate (13) enhanced degradation of labeled RNA with a concentration of 9×10^-11 M necessary to elicit a half-maximal response compared to ppp5'A2'p5'A2'p5'A which required a concentration of 9×10^-10 M to elicit a half-maximal response. In addition, there was good correlation between these values and the corresponding concentrations response for inhibition of protein synthesis.

reticulocyte lysate = settings: compared to tetramer triphosphate; cited from earlier work

| Molecule | IC50 [1] [nM] | effect on the rate of synthesis of 2-5A (2-5A synthetase) | effect on the rate of synthesis of 2-5A (2-5A synthetase; listed as "tailed" (pA)4) | effect on translation by itself [2] | effectiveness as antagonist of 2-5A action (in words) [3] | increase in the concentration of 2-5A trimer triphosphate required for half-maximal inhibition of protein synthesis ([3]; 12 at 8×10^-5 M) [fold] | prevention of 2-5A-activated degradation of encephalomyocarditis virus RNA [4] | increase in the concentration of ppp5'A2'p5'A2'p5'A needed to effect 50% of the maximum inhibition ([4]; 8×10^-5 M 12) [fold] | prevention of protein synthesis inhibition caused by poly(I).poly(C) (in words) [5] | potency in preventing the inhibitory action of poly(I).poly(C) (in words) ([5]; 11 vs 12) | stability in cell-free extracts relative to unmodified 2',5'-oligoadenylates [6] | antibody reactivity during incubation ([6]; 4×10^-7 M oligomer, 6 hours of incubation) | antibody inhibition by mononucleotides and adenosine [1] | activity as activator of RNase L (in words) [7] | biological activity in reticulocyte lysate (reticulocyte lysate) |
| --- | --- | --- | --- | --- | --- | --- | --- | --- | --- | --- | --- | --- | --- | --- | --- |
| 5'-monophosphoryladenylyl-(2'→5')-adenylyl-(2'→5')adenylyl(2'→6')(3'-aza-4'-hexyl-1',2',3',4'-tetradeoxyhexopyranos-1'-yl)adenine [Compound 12] | 1 | neither 11 nor 12 affected the rate of formation of 2-5A | neither "tailed" (pA)3 nor "tailed" (pA)4 had any significant effect on the rate of synthesis | no significant effect on translation | somewhat more effective than the trimer 11 in preventing 2-5A action | ≥ 1000 | prevented | ~1000 | not complete | approximately equal potency | markedly more stable in cell-free extracts than the unmodified 2',5'-oligoadenylates | did not decrease even after 6 hours of incubation; also recorded: increased slightly with time |  |  |  |
| Nc1ncnc2c1ncn2[C@@H]1O[C@H](CO)[C@@H](O)[C@H]1O [adenosine] |  |  |  |  |  |  |  |  |  |  |  |  | inhibitory only at millimolar concentrations |  |  |
| ppp5'A2'p5'A2'p5'A | 18 |  |  |  |  |  |  |  |  |  |  |  |  | quite similar as activators of RNase L | anomalously low compared to tetramer triphosphate |
